Results reported in PubChem BioAssay (NCI).
“And” between values parts separate entries of the source, which are not always exact repeats. Identical values can stand only once.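 Where inhibition never reached the appropriate level, the endpoint shown equals the highest concentration tested. Otherwise, values were interpolated linearly from a five-concentration, 48-hour dose response in 96-well plates. At the TGI there is no net growth.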 Where a SMILES comes first, the peptide text is derived from it. The star is where a group is joined. Cbz = O=C(OCc1ccccc1)*

Columns and labels:
Test in all cases: inhibition of tumour cell growth, NCI panel, 48 h
SNB-19 CNS = tested on: SNB-19 CNS
RXF 393 renal = tested on: RXF 393 renal
SN12C renal = tested on: SN12C renal
MDA-MB-435 = tested on: MDA-MB-435
BT-549 breast = tested on: BT-549 breast
MDA-N = tested on: MDA-N
ACHN renal = tested on: ACHN renal
UO-31 renal = tested on: UO-31 renal
NCI-H460 lung = tested on: NCI-H460 lung
IGROV1 ovarian = tested on: IGROV1 ovarian
SK-MEL-28 melanoma = tested on: SK-MEL-28 melanoma

SMILES | TGI (SNB-19 CNS) | TGI (RXF 393 renal) | TGI (SN12C renal) | TGI (MDA-MB-435) | TGI (BT-549 breast) | TGI (MDA-N) | TGI (ACHN renal) | TGI (UO-31 renal) | TGI (NCI-H460 lung) | TGI (IGROV1 ovarian) | TGI (SK-MEL-28 melanoma)
CC(=O)c1c(N=[N+]=[N-])c2cccc3c2n(c1=O)CCC3 | > 100 µM | 45.4 µM | 44.5 µM | 42.7 µM | 39.8 µM | 44.5 µM | 54.2 µM | 55.6 µM | 35.1 µM | 42.8 µM | 
CC(=O)NC1C(Sc2ncn(C3OC(CO)C(O)C(O)C3NC(C)=O)n2)OC(CO)C(O)C1O (stereo unspecified) | > 100 µM | > 100 µM | > 100 µM | > 100 µM | > 100 µM | > 100 µM | > 100 µM |  | > 100 µM | > 100 µM | > 100 µM
CCOP(=O)(OCC)/C(C#N)=C/c1ccc(-c2cc(C(F)(F)F)cc(C(F)(F)F)c2)o1 | 32 µM |  | 29.1 µM | 29 µM | 44.9 µM | 27.2 µM | 50.2 µM | 34.9 µM | 19.1 µM |  | 33 µM
CN1CCc2c(sc3[nH]c(=S)[nH]c(=S)c23)C1 | > 100 µM | > 100 µM | > 100 µM | > 100 µM | > 100 µM | > 100 µM | > 100 µM |  | > 100 µM | > 100 µM | > 100 µM
Cc1ccc(CSC(N)=Nc2ccccc2)cc1C | 65.9 µM | 33.4 µM | 38.5 µM | 30.7 µM | 50.8 µM | 43.8 µM | > 100 µM |  | 39 µM | 57.5 µM | 45.1 µM
Cc1n[n+](Cc2ccccc2)c2sc(N)nn12 | > 100 µM | > 100 µM | > 100 µM | > 100 µM | > 100 µM | > 100 µM | > 100 µM | > 100 µM |  | > 100 µM | > 100 µM
COC(=O)[C@@H](NC(=O)N(Cc1ccccc1)C[C@H](CC(C)C)NC(=O)[C@@H](NC(=O)OC(C)(C)C)C(C)C)C(C)C | > 100 µM | > 100 µM |  | > 100 µM | > 100 µM | > 100 µM | > 100 µM | > 100 µM | > 100 µM |  | > 100 µM
CN1CC=C(c2c(N)nc(N)[nH]c2=O)CC1 | > 100 µM | > 100 µM | > 100 µM | > 100 µM | > 100 µM | > 100 µM | > 100 µM | > 100 µM | > 100 µM | > 100 µM | > 100 µM
S=C1NCCN1C(=S)Nc1ccccc1 |  | 58 µM | > 100 µM | > 100 µM | > 100 µM | > 100 µM | > 100 µM | > 100 µM | > 100 µM | > 100 µM | > 100 µM
C=CC1(CC[C@]2(c3ccc(OC)c(OC)c3)C=[N+]([O-])O[C@H](O[C@@H]3CCCC[C@H]3C(C)(C)c3ccccc3)C2)OCC(C)(C)CO1 | > 54.1 µM | > 48.4 µM | 22.8 µM | > 51.1 µM | 98.6 µM | 24.7 µM | > 50 µM | > 48.7 µM | > 59.8 µM | 23.7 µM | 53.8 µM
CCOC(=O)CCC(NC(=O)C(Cc1ccccc1)NC(=O)OCc1ccccc1)C(=O)OCC (stereo not drawn) (Cbz-Phe-Glu(OEt)-OEt; configuration not given here) | 36.7 µM | 32.1 µM | 37.7 µM | 35.5 µM | > 100 µM | 32.6 µM | 31.2 µM | 31.2 µM | 38.5 µM | 32.3 µM | 33.2 µM
O=c1[nH]nc(Cc2ccc(Cl)cc2)n1/N=C/c1cccs1 | 64 µM | 32.7 µM | > 100 µM | > 100 µM | 66.5 µM | > 100 µM | > 100 µM | > 100 µM | > 100 µM | 79.5 µM | > 100 µM
COc1ccc(/C(Cl)=C(\C#N)c2ccc(OC)c(OC)c2)cc1OC | > 100 µM | > 100 µM | > 100 µM | > 100 µM | > 100 µM | > 100 µM | > 100 µM | > 100 µM | > 100 µM | > 100 µM | 
O=C1CC(=O)NC(=NN2C(=O)/C(=C/c3ccc(Cl)c(Cl)c3)N=C2c2ccccc2)N1 |  | 92.6 µM | 34.8 µM | > 100 µM | 49.2 µM | 90.7 µM | > 100 µM | > 100 µM | 74.9 µM | > 100 µM | 78 µM
COCn1cnc2c(=O)nc(SC)n(-c3ccccc3)c21 | > 100 µM | > 100 µM | > 100 µM | > 100 µM | > 100 µM | > 100 µM | > 100 µM | > 100 µM |  | > 100 µM | 
O=c1[nH]c2nc3ccccc3c(=O)n2/c1=C/c1cccs1 | > 100 µM | > 100 µM | > 100 µM | > 100 µM | > 100 µM | > 100 µM | > 100 µM | > 100 µM |  | > 100 µM | > 100 µM
CCC1CC(O)c2c(O)c3c(c(O)c2C1O)C(=O)c1cccc(O)c1C3=O (stereo unspecified) (tested in a mixture with another compound) | 0.929 µM and 1.34 µM | 0.0326 µM and 0.0459 µM | 1.05 µM | 0.0713 µM and 0.0207 µM | 0.0704 µM | 0.093 µM and 0.0639 µM |  | 0.038 µM | 0.271 µM | 0.239 µM and 1.02 µM | 0.0712 µM and 0.0612 µM
NCCCNCCCCN1CCOC1=O | > 100 µM |  | > 100 µM | > 100 µM | > 100 µM | > 100 µM | > 100 µM | > 100 µM | > 100 µM | > 100 µM | > 100 µM
NCCCN(CCCN)CCc1cn(C(=O)c2ccccc2)cn1 | 33.6 µM | 8.89 µM | 26.2 µM | 14.3 µM | 35.1 µM | 40.5 µM | 19.2 µM |  | 39 µM | 17.4 µM | 33.2 µM
CC(NC(=O)Cc1ccccc1)NC(=O)C(C)C(=O)NCc1ccccc1 (stereo unspecified) | 58.8 µM | > 100 µM | > 100 µM | > 100 µM | 75 µM | > 100 µM | > 100 µM | > 100 µM | > 100 µM | > 100 µM | 
COc1cccc(CC(=O)N2CCN(CCCc3ccccc3)CC2)c1 | > 100 µM |  | > 100 µM | > 100 µM | > 100 µM | > 100 µM | > 100 µM | > 100 µM | > 100 µM | > 100 µM | > 100 µM
